Consider ten compounds from ChEMBL document CHEMBL1201862, “PubChem BioAssay data set” (2004).

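Interpolation was linear, between the two tested concentrations surrounding the appropriate level; five concentrations were tested over 48 hours in 96-well plates. GI50 is the concentration that inhibits growth by half.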 The source made the active and inactive calls. Rule as the data show it: active = GI50 up to about 1.1 µM and inactive = higher.

Test systems include SNB-19; Malme-3M; IGROV-1; LOX IMVI; K562; NCI-H23; SW-620; SN12C; CCRF-CEM; NCI-H522; TK-10; MOLT-4; HL-60; SF-268; HCT-15; OVCAR-4; OVCAR-5.
Common to all, as to experiment: inhibition of tumour cell growth, NCI panel, 48 h

As for `Nc1nc(O)c([N+](=O)[O-])c(NCCOCP(=O)(O)O)n1`, the GI50 with SNB-19, in the test with Malme-3M, in the test on IGROV-1, in the test with LOX IMVI, in the test on K562 and in the test on NCI-H23 was > 100 µM (inactive) each time. In addition, the GI50 in the test with SW-620, in the test with SN12C, in the test on CCRF-CEM, in the test on NCI-H522, with TK-10 and in the test on MOLT-4 was > 100 µM (inactive) each time. Moreover, the GI50 with HL-60 and in the test with SF-268 was > 100 µM (inactive) each time.

With `CO/S(=N/S(=O)(=O)c1ccccc1)c1ccccc1[N+](=O)[O-]` (configuration not stated), the GI50 in the test on SNB-19 is > 100 µM (inactive); in the test on Malme-3M, > 100 µM (inactive); with IGROV-1, > 100 µM (inactive); in the test with LOX IMVI, > 100 µM (inactive); in the test with HCT-15, greater than 100 µM; with OVCAR-4 it was > 100 µM (inactive). In addition, the GI50 in the test on K562, in the test on NCI-H23, with SW-620, in the test on SN12C, with CCRF-CEM and in the test with NCI-H522 was > 100 µM (inactive) in each case. Also, the GI50 with OVCAR-5, in the test on MOLT-4 and in the test on SF-268 was > 100 µM (inactive) throughout.

As to `NC1=NN(c2ccccc2)C(=O)C1C(=O)CCC(=O)Nc1cccc(C(F)(F)F)c1` (configuration not stated), the GI50 was > 100 µM (inactive) with SNB-19; > 100 µM (inactive) in the test on Malme-3M; > 100 µM (inactive) with IGROV-1; 72.4 µM (inactive) in the test on LOX IMVI; 30.8 µM in the test on HCT-15; > 100 µM (inactive) in the test with OVCAR-4. The GI50 with K562 was 35.2 µM (inactive); in the test on NCI-H23 it was > 100 µM (inactive); in the test with SW-620, 42.6 µM (inactive); with SN12C, > 100 µM (inactive); in the test on CCRF-CEM, > 100 µM (inactive); in the test on TK-10, > 100 µM (inactive). The GI50 in the test on OVCAR-5, with MOLT-4, in the test with HL-60 and with SF-268 was > 100 µM (inactive) each time.

In the case of `CC(C)(C)/N=C1/CC(C)(C)c2ccccc2/C(=N\c2ccccc2)S1`, the GI50 was 36.2 µM (inactive) in the test with SNB-19; 27.9 µM (inactive) in the test with Malme-3M; 48.3 µM (inactive) with IGROV-1; 18.6 µM (inactive) in the test on LOX IMVI; 37.2 µM in the test with HCT-15; 26.4 µM (inactive) in the test with K562. Also, the GI50 is 27.7 µM (inactive) in the test with NCI-H23; 44 µM (inactive) with SW-620; 29.4 µM (inactive) with SN12C; 26.9 µM (inactive) in the test on CCRF-CEM; 15.2 µM (inactive) in the test on NCI-H522; 75.9 µM (inactive) in the test on TK-10. For the same compound, the GI50 is 37.9 µM (inactive) in the test on OVCAR-5, 14.8 µM (inactive) in the test on MOLT-4, 12.2 µM (inactive) in the test with HL-60 and 28.2 µM (inactive) in the test on SF-268.

Consider `O=C1C(=O)N(c2ccc(Cl)c(Cl)c2)C(=O)C(=O)C1c1nc2ccccc2o1`, for which the GI50 in the test on SNB-19 was 72.9 µM (inactive); in the test on Malme-3M it was 87.9 µM (inactive); in the test with IGROV-1, > 100 µM (inactive); in the test with LOX IMVI, > 100 µM (inactive); with HCT-15, 50.2 µM; in the test on OVCAR-4, 95.7 µM (inactive). For the same compound, the GI50 was 36.6 µM (inactive) in the test on K562; 68.7 µM (inactive) in the test with NCI-H23; 56.5 µM (inactive) in the test on SW-620; 94.6 µM (inactive) in the test with SN12C; 57.4 µM (inactive) in the test with NCI-H522; > 100 µM (inactive) in the test with TK-10. Further, the GI50 in the test with OVCAR-5 was > 100 µM (inactive); with MOLT-4, 31.7 µM (inactive); in the test on HL-60 it was 22.9 µM (inactive); in the test on SF-268, > 100 µM (inactive).

Turning to `C#CCOCn1cnc2c(N)ncnc21`, the GI50 in the test on SNB-19, with Malme-3M, in the test with IGROV-1, in the test on LOX IMVI, in the test on OVCAR-4 and in the test on K562 was > 100 µM (inactive) in each case. The GI50 with NCI-H23, in the test with SW-620, with SN12C, in the test with CCRF-CEM, with NCI-H522 and with TK-10 was > 100 µM (inactive) throughout. For the same compound, the GI50 in the test on OVCAR-5, with MOLT-4 and with SF-268 was > 100 µM (inactive) each time.

For the compound `COC(=O)C1=CC(=O)[C@@H]2CCCC[C@H]12`, the GI50 is > 100 µM (inactive) in the test with SNB-19; > 100 µM (inactive) in the test on Malme-3M; greater than 100 µM in the test on HCT-15; > 100 µM (inactive) in the test on OVCAR-4; > 100 µM (inactive) with K562; > 100 µM (inactive) in the test on SW-620. The GI50 in the test with SN12C, in the test on CCRF-CEM, in the test with NCI-H522, in the test on TK-10, in the test on MOLT-4 and in the test with HL-60 was > 100 µM (inactive) in each case. Besides, the GI50 in the test on SF-268 is > 100 µM (inactive).

As for `Cc1ccc(C2=C(c3ccccc3)C(Br)(c3ccccc3)C(c3ccccc3)=C2c2ccc(C)cc2)cc1`, the GI50 with SNB-19 is > 100 µM (inactive); with Malme-3M, > 100 µM (inactive); in the test with IGROV-1, > 100 µM (inactive); in the test with HCT-15, greater than 100 µM; with OVCAR-4, > 100 µM (inactive); in the test with K562, > 100 µM (inactive). Further, the GI50 in the test with NCI-H23, in the test on SW-620, in the test on SN12C, in the test on CCRF-CEM, with NCI-H522 and with TK-10 was > 100 µM (inactive) each time. The GI50 with OVCAR-5, with MOLT-4, in the test with HL-60 and in the test with SF-268 was > 100 µM (inactive) each time.

Turning to `Cc1ccccc1C(=O)c1ccccc1O`, the GI50 in the test on SNB-19 is > 100 µM (inactive); in the test with Malme-3M it was > 100 µM (inactive); with IGROV-1, > 100 µM (inactive); with LOX IMVI, > 100 µM (inactive); with HCT-15, greater than 100 µM; in the test with OVCAR-4 it was > 100 µM (inactive). The GI50 with K562, with NCI-H23, in the test on SW-620, with SN12C, in the test with CCRF-CEM and in the test with TK-10 was > 100 µM (inactive) throughout. The GI50 in the test on OVCAR-5, with MOLT-4, in the test with HL-60 and in the test with SF-268 was > 100 µM (inactive) throughout.

On to `N#CCCC(C#N)(C#N)CCC#N`, for which the GI50 in the test with SNB-19 was > 100 µM (inactive); with Malme-3M, > 100 µM (inactive); in the test with IGROV-1, > 100 µM (inactive); in the test with LOX IMVI it was > 100 µM (inactive); in the test on HCT-15 it was greater than 100 µM; in the test with K562, > 100 µM (inactive). For the same compound, the GI50 is > 100 µM (inactive) in the test on NCI-H23; > 100 µM (inactive) in the test with SW-620; > 100 µM (inactive) in the test on SN12C; > 10 µM (inactive) in the test on CCRF-CEM; > 100 µM (inactive) in the test with NCI-H522; > 100 µM (inactive) in the test with TK-10. The GI50 in the test on MOLT-4, in the test with HL-60 and with SF-268 was > 100 µM (inactive) in each case.
